Laboratory results reported in patent publication US20160324770A1, “INTRATHECAL ADMINISTRATION, PREFERABLY INTRAVENTRICULAR, OF MTOR INHIBITORS FOR THE THERAPY OF SOME NEURODEGENERATIVE, NEUROINFLAMMATORY AND NEURO-ONCOLOGIC DISEASES” (priority 2012, published 2016).
Where two headings read alike, the source gives them in different places.

Legend:
[1] = cited from earlier work
[2] = test system: AD triple transgenic mouse (3xTg-AD); experiment: Alzheimer's disease mouse model, intraventricular osmotic pumps; type: in vivo, 3xTg-AD mouse; settings: local application, same dosage as in EAE mice
From the text: (§1) We carried out trials in mouse models exemplifying 3 families of neurological diseases: • EAE (Experimental Autoimmune Encephalomyelite, model of neuroinflammatory disease): SJL/j mice were immunized with two subcutaneous injections, performed 7 days apart, of proteolipid protein (PLP139-151), Freund's adjuvant and inactivated Mycobacterium tuberculosis. The disease severity was rated with a clinical score: 0=healthy; 1=tail weakness; 2=rear limb ataxia and/or paresis; 3=rear limb paralysis and/or front limb paresis; 4=tetraplegia; 5=state of agony or death • AD (Alzheimer's Disease, model of neurodegenerative disease): AD triple transgenic mouse (3xTg-AD) supplied by Jackson Laboratories (http://jaxmice.jax.org/strain/004807.html) Their memory was evaluated using the Passive Avoidance and Radial Maze tests; • TSC (Tuberous sclerosis complex, model of neuro-oncologic disease): TSC1 mouse with TSC1 gene within a flox cassette, supplied by Jackson Laboratories (http://jaxmice.jax.org/strain/005680.html)
We applied intraventricular catheters and everolimus-secreting osmotic pumps implanted subcutaneously on the back of 12 AD mice for 4 weeks. We infused a vehicle to an equal number of mice. We injected everolimus into 10 healthy mice and, finally, the vehicle into another 10. The appropriate pump was replaced after 4 weeks and kept in place for another 4. […]

[3] = test system: Subependymal Giant Cell Astrocytomas (SEGAs); settings: systemic administration, cited from earlier work
[4] = Blood and brain concentrations and metabolites (LC-MS) after intraventricular (intracerebral) administration by osmotic pump; type: in vivo, mice
From the text: Intraventricular infusion: Under general anaesthesia obtained with Ketamine/Xylazine, Alzet osmotic pumps (http://www.alzet.com/products/guide_to_use/pump_selection.ht ml) were implanted subcutaneously on the back; a catheter leading from the pump reached the cranial vault, where it was connected to a connector (Brain Kit 3, Alzet) stereotaxically implanted in the cranium until reaching the lateral ventricle. These pumps are capable of infusing their content at a constant speed for 1-4 weeks.
A quantitative analysis of everolimus in blood and tissue samples was performed with the isotopic dilution method using the LC-MS technique. The chromatographic system was the following: Agilent 1290 Infinity HPLC equipped with a binary pump and HiP Auto Sampler model G4226A. The injection volume was 2 μL, the analytical column used was a Phenomenex Kinetics PFP UHPLC column (Phenomenex, Milan, Italy) […], 1.7 μm, 100 Å, temperature controlled at 55° C. A gradient elution was performed using as solvent A: water with 5 mM ammonium formiate, solvent B: methanol with 0.1% formic acid. The elution profile was the following: solvent A 30%/solvent B 70% for 3 minutes, solvent A 1%/solvent B 99% from 3 to 6 minutes, at a flow velocity of 0.25 mL/min. This setup enabled an elution time of 2.5 minutes. Every injection was preceded by a cycle of washing the injector system with methanol.
Mass spectrometry was conducted using a Q-TOF MS detector model G6540A (Agilent, Germany) equipped with a Dual AJS ESI (electrospray ionization interface) system. The instrument parameters were the following: sheath gas flow: […], sheath gas temperature: 300° C., gas flow: 6 L/min, gas temperature: 300° C., nebulizer pressure: 35 psi, ion spray voltage: 5500 V.
Both everolimus and the isotopic internal standard were detected as ammonium adducts in the positive ion mode.
Everolimus was extracted from whole blood in 1 mL of a methanol solution containing 10% ammonium acetate in order to enable precipitation of most of the serum protein.
The blood samples were freeze-dried and subsequently extracted. The extraction process was carried out in a sonication bath for approx. 10 minutes to ensure complete haemolysis and release of the drug from the cell material.
The process of extraction from brain samples, divided into right and left hemispheres, was similar to the one for whole blood. The tissue samples were weighed and subsequently freeze-dried. After freeze-drying the samples were finely chopped to facilitate subsequent extraction. 1 mL of the methanol solution was then added to 1% v/v of ammonium formiate with 200 ng/mL of internal standard. The samples were then subjected to 10 minutes of sonication and vortexed to ensure complete extraction of the drug. Then followed centrifugation (10 minutes, 4000 rpm, 10° C.) and the supernatant was separated from the pellet. As previously described, the solutions were purified by means of HybridSPE®-Phospholipid solid-phase extraction cartridges with a total volume of 1 ml (Sigma Aldrich, Milan) to eliminate the excess lipid material. The samples were then immediately submitted to LC-MS analysis.
We then decided to look for the maximum tolerable dose by intraventricular administration of everolimus at concentrations 10 times higher than those shown in Table 1: A=25 mg/Kg, B=12.5 mg/Kg, C=[…].
Though they could not be quantified, the presence of metabolites deriving from the transformation of the drug has been noted in the table.

[5] = test system: EAE (Experimental Autoimmune Encephalomyelite) mice; experiment: EAE mouse model, intraventricular pump from clinical score 1; type: in vivo, SJL/j mice
From the text: as §1
30 SJL/j mice were immunized and started developing the disease after 11 days. As they developed the neurological deficit and reached a score of 1, they were operated on and an Alzet 1004 pump containing everolimus or a vehicle was positioned. The purpose of this was to represent the usual clinical situation in which the patient goes to the doctor's on the occasion of the first attack. Generally speaking, a diagnosis is made and a high-dose steroid therapy is applied, with good regression of the symptoms, but in the majority of cases other attacks will occur and they will be followed by an increasingly less satisfactory regression, with a gradual increase in residual disability.
In our experimental set, the weight and clinical score of affected mice were monitored daily.

[6] = dose A=25 mg/Kg intraventricular, treated 3 days
[7] = dose B=12.5 mg/Kg intraventricular, treated 14 days
[8] = dose C=6.125 mg/Kg intraventricular, treated 14 days

For `CO[C@H]1C[C@@H]2CC[C@@H](C)[C@@](O)(O2)C(=O)C(=O)N2CCCC[C@H]2C(=O)O[C@H]([C@H](C)C[C@@H]2CC[C@@H](OCCO)[C@H](OC)C2)CC(=O)[C@H](C)/C=C(\C)[C@@H](O)[C@@H](OC)C(=O)[C@H](C)C[C@H](C)/C=C/C=C/C=C/1C` [everolimus], the half-life [1] is given as 28 to 32 h, the “Pharmacological activity observed in AD mice” value [2] is given as “an increase in autophagy” and the “Study endpoint (volumetric reduction in SEGAs)” value ([3]; 28 patients affected by TS) is given as “reached the endpoint”. The “Severity grade of adverse reactions” value ([3]; many adverse reactions, most of infectious origin) was 1-3, the Metabolites ([4]; dose A, brain field T8 dx) was “No metabolites” and the Metabolites ([4]; dose A, brain field T9 sx) was “No metabolites”. The “Brain Conc” value [4, 6] was 20.4 ng/g, the “Conc/250 mg brain, Left hemisphere” value [4, 6] was 4.9 ± 2.3 /250 mg brain and the “Conc/250 mg brain, Right hemisphere” value [4, 6] was 5.3 ± 2.8 /250 mg brain. For the same compound, the Metabolites ([4]; dose B, brain field T5- dx) was “No metabolites”, the Metabolites ([4]; dose B, brain field T6 sx) was “No metabolites” and the “Brain Conc” value [4, 7] was 12 to 16 ng/g. For the same compound, the “Conc/250 mg brain, Left hemisphere” value [4, 7] was 2.91 ± 0.8 /250 mg brain, the “Conc/250 mg brain, Right hemisphere” value [4, 7] was 3.1 ± 1.6 /250 mg brain and the Metabolites ([4]; dose C, brain field T1- dx) was “No metabolites”. For the same compound, the Metabolites ([4]; dose C, brain field T1- sx) was “No metabolites”, the Metabolites ([4]; dose C, brain field T2- dx) was “No metabolites” and the Metabolites ([4]; dose C, brain field T2- sx) was “No metabolites”. For the same compound, the “Brain Conc” value [4, 8] was 11.8 ng/g, the “Conc/250 mg brain, Left hemisphere” value [4, 8] was 2.5 ± 0.2 /250 mg brain and the “Conc/250 mg brain, Right hemisphere” value [4, 8] was 3.4 ± 0.7 /250 mg brain. The concentration at 3 days ([4]; mouse, whole blood, other: intraventricular infusion by osmotic pump, dose A=25 mg/Kg intraventricular, treated 3 days, read-out: Conc, Blood) was < 1000 ng/g, the concentration at 14 days ([4]; mouse, whole blood, other: intraventricular infusion by osmotic pump, dose B=12.5 mg/Kg intraventricular, treated 14 days, read-out: Conc, Blood) was < 1000 ng/g and the concentration at 14 days ([4]; mouse, whole blood, other: intraventricular infusion by osmotic pump, dose C=6.125 mg/Kg intraventricular, treated 14 days, read-out: Conc, Blood) was < 1000 ng/g. The “Immunosuppressive effect of intrathecal administration” value ([5]; EAE mice) was “powerful local immunosuppressive effect”, the “Severity of the following 2 attacks” value ([5]; intraventricular pump implanted at score 1, vs controls) was “not much milder than in the controls” and the “Severity of the first attack” value ([5]; intraventricular pump implanted at score 1, vs vehicle) was “reduction in the severity of the first attack”. For the same compound, the “Attacks after the third attack” value ([5]; intraventricular pump, controls continued to have recurring attacks) was “no longer manifested attacks”, the “Clinical score after the third attack” value ([5]; score scale 0=healthy to 5=agony or death) was 0 and the “Body weight after the third attack” value ([5]; treated EAE mice, FIG. 3) was “fully recovered”.
